Counter-ions that a name gives are not always drawn.
What follows are compounds tested against T1, recombinant human LTA4 hydrolase (rhLTA4H) (Homo sapiens, UniProt P09960) (assay: Recombinant human LTA4 hydrolase assay for LTA4 hydrolase inhibitor activity). Conditions: rhLTA4H, LTB4 by immunoassay; single determination or average of two or more; mark after value = form tested: ′ free base, ″ hydrochloride, ^ formate; read-out: IC50.
T1 construct: made in house; host or cells: Spodoptera frugiperda (Sf-9) cells, baculovirus (pFastBac1)
T1 sequence (P09960 1-611): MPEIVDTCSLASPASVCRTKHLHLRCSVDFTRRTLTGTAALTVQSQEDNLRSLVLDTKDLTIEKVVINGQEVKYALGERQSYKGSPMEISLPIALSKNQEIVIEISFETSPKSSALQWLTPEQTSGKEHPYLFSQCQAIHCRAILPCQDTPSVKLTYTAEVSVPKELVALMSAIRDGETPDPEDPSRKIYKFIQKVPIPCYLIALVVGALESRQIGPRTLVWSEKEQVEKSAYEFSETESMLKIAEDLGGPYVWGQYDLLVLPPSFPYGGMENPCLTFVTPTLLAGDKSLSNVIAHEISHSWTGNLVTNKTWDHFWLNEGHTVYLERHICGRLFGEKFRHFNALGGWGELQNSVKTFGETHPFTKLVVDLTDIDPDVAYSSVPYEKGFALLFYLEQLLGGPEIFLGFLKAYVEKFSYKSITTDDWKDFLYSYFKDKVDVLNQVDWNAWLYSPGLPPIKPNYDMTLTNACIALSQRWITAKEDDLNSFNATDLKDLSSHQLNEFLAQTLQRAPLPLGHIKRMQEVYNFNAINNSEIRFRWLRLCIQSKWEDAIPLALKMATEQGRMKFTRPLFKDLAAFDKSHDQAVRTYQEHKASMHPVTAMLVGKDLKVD
Format: biochemical
Description: Assay 1: Recombinant Human LTA4 Hydrolase Assay for LTA4 Hydrolase Inhibitor Activity
Compounds of the present invention were tested for LTA4 hydrolase inhibitor activity against recombinant human LTA4 hydrolase (rhLTA4H). Vectors were prepared and used to express rhLTA4H essentially as follows: LTA4 hydrolase encoding DNA was amplified by polymerase chain reaction (PCR) using a human placental cDNA library as a template. […] The amplified 1.9 kb DNA fragment encoding LTA4 hydrolase was isolated and cloned into the pFastBac1 vector (Invitrogen). Recombinant baculovirus was generated as described by the manufacturer, and used to infect Spodoptera frugiperda (Sf-9) cells. […] The purified enzyme solution was adjusted to contain 0.29 mg/mL LTA4 hydrolase, 50 mM Tris (pH 8.0), 150 mM NaCl, 5 mM dithiothreitol, 50% glycerol, and EDTA-free Complete protease inhibitor cocktail (Roche).
LTA4 substrate was prepared from the methyl ester of LTA4 (Cayman Chemical) by treatment with 67 equiv of NaOH under nitrogen at rt for 40 min. The LTA4 substrate in its free acid form was kept frozen at −80° C. until needed. Each compound was diluted to different concentrations in assay buffer (from Assay Designs) containing 10% DMSO. A 25-μL aliquot of each compound dilution was incubated for 10 min at rt with an equal volume of assay buffer containing 10 ng of recombinant human LTA4H. The solution was then adjusted to 200 μL with assay buffer. […] Each reaction was carried out at rt for 30 min. The reaction was stopped by diluting 10 μL of the reaction mixture with 200 μL of assay buffer. LTB4 was quantified in the diluted sample by a commercially available enzyme-linked immunoassay (Cayman Chemical Co.), as recommended by the manufacturer. Positive controls, under essentially identical conditions but without addition of an inhibitor compound, and negative controls, containing all assay components except enzyme, were routinely run in each experiment. IC50 values were determined by nonlinear regression of the activity data at different compound concentrations using Graphpad Prism 4.0, one site binding competition.
The values presented here are the result of a single determination or an average of two or more determinations. Compounds that were not tested are indicated as such by a “NT” designation.

Row | SMILES | IC50
1 | CC(=O)NC1CCN(Cc2coc3cc(Oc4nc5nc(C)ccc5s4)ccc23)CC1 [Example 250, N-{1-[6-(5-Methyl-thiazolo[4,5-b]pyridin-2-yloxy)-benzofuran-3-ylmethyl]-piperidin-4-yl}-acetamide formate] | 467 nM
2 | CC(=O)NC1CCN(Cc2cc3ncc(Oc4nc5ncccc5s4)cc3o2)CC1 [Example 273, N-{1-[6-(Thiazolo[4,5-b]pyridin-2-yloxy)-furo[3,2-b]pyridin-2-ylmethyl]-piperidin-4-yl}-acetamide formate] | 160 nM
3 | CC(=O)N1C[C@@H]2C[C@H]1CN2Cc1cc2ncc(Oc3nc4ncccc4s3)cc2o1 [Example 274, (1S,4S)-1-{5-[6-(Thiazolo[4,5-b]pyridin-2-yloxy)-furo[3,2-b]pyridin-2-ylmethyl]-2,5-diaza-bicyclo[2.2.1]hept-2-yl}-ethanone formate] | 250 nM
4 | CC(=O)N[C@H]1C[C@H]2CC[C@@H](C1)N2Cc1cc2ncc(Oc3nc4ncccc4s3)cc2o1 [Example 296, meso-endo-N-{8-[6-(Thiazolo[4,5-b]pyridin-2-yloxy)-furo[3,2-b]pyridin-2-ylmethyl]-8-aza-bicyclo[3.2.1]oct-3-yl}-acetamide formate] | 850 nM
5 | NS(=O)(=O)c1ccc(CCNCc2coc3cc(Oc4nc5ccccc5s4)ccc23)cc1 [Example 311, 4-(2-{[6-(Benzothiazol-2-yloxy)-benzofuran-3-ylmethyl]-amino}-ethyl)-benzenesulfonamide] | 230 nM
6 | CC(=O)N[C@@H]1C[C@H]2CC[C@@H](C1)N2Cc1cc2ncc(Oc3nc4ncccc4s3)cc2o1 [Example 336, meso-exo-N-{8-[6-(Thiazolo[4,5-b]pyridin-2-yloxy)-furo[3,2-b]pyridin-2-ylmethyl]-8-aza-bicyclo[3.2.1]oct-3-yl}-acetamide] | 110 nM
7 | NC(=O)N1C[C@@H]2C[C@H]1CN2Cc1cc2ncc(Oc3nc4ncccc4s3)cc2o1 [Example 337, (1S,4S)-5-[6-(Thiazolo[4,5-b]pyridin-2-yloxy)-furo[3,2-b]pyridin-2-ylmethyl]-2,5-diaza-bicyclo[2.2.1]heptane-2-carboxylic acid amide formate] | 270 nM
8 | CC(=O)N1C[C@H]2CC[C@@H](C1)N2Cc1cc2ncc(Oc3nc4ncccc4s3)cc2o1 [Example 338, meso-1-{8-[6-(Thiazolo[4,5-b]pyridin-2-yloxy)-furo[3,2-b]pyridin-2-ylmethyl]-3,8-diaza-bicyclo[3.2.1]oct-3-yl}-ethanone formate] | 450 nM
9 | O=C1CCCN1C1CCN(Cc2cc3ncc(Oc4nc5ncccc5s4)cc3o2)CC1 [Example 341, 1-{1-[6-(Thiazolo[4,5-b]pyridin-2-yloxy)-furo[3,2-b]pyridin-2-ylmethyl]-piperidin-4-yl}-pyrrolidin-2-one] | 470 nM
10 | CC(=O)N1CCN(Cc2cc3ncc(Oc4nc5ncccc5s4)cc3o2)CC1 [Example 343, 1-{4-[6-(Thiazolo[4,5-b]pyridin-2-yloxy)-furo[3,2-b]pyridin-2-ylmethyl]-piperazin-1-yl}-ethanone formate] | 250 nM
11 | CNC(=O)c1coc2cc(Oc3nc4ncccc4s3)ccc12 [Example 367, 6-(Thiazolo[4,5-b]pyridin-2-yloxy)-benzofuran-3-carboxylic acid methylamide] | 160 nM
12 | O=C(c1coc2cc(Oc3nc4ncccc4s3)ccc12)N1CCC2CCCCC2C1 (stereo not shown) [Example 385, (Octahydro-isoquinolin-2-yl)-[6-(thiazolo[4,5-b]pyridin-2-yloxy)-benzofuran-3-yl]-methanone] | 1530 nM
13 | O=C(c1coc2cc(Oc3nc4ncccc4s3)ccc12)N1CCc2ccccc2C1 [Example 386, (3,4-Dihydro-1H-isoquinolin-2-yl)-[6-(thiazolo[4,5-b]pyridin-2-yloxy)-benzofuran-3-yl]-methanone] | 210 nM

The remaining lines, values ahead:

Row | IC50 | SMILES
14 | 108 nM | CC(=O)NC1CCN(Cc2coc3cc(Oc4nc5ncc(Cl)cc5s4)ccc23)CC1 [Example 254, N-{1-[6-(6-Chloro-thiazolo[4,5-b]pyridin-2-yloxy)-benzofuran-3-ylmethyl]-piperidin-4-yl}-acetamide formate]
15 | < 1 nM | CC(=O)N1CCC2(CCN(Cc3coc4cc(Oc5nc6ncccc6s5)ccc34)CC2)C1 [Example 265, 1-{8-[6-(Thiazolo[4,5-b]pyridin-2-yloxy)-benzofuran-3-ylmethyl]-2,8-diaza-spiro[4.5]dec-2-yl}-ethanone]
16 | 40 nM | c1cnc(N2CCN(Cc3coc4cc(Oc5nc6ncccc6s5)ccc34)CC2)nc1 [Example 292, 2-[3-(4-Pyrimidin-2-yl-piperazin-1-ylmethyl)-benzofuran-6-yloxy]-thiazolo[4,5-b]pyridine formate]
17 | 19 nM | c1ccc2c(c1)CCN(Cc1coc3cc(Oc4nc5ncccc5s4)ccc13)C2 [Example 293, 2-[6-(Thiazolo[4,5-b]pyridin-2-yloxy)-benzofuran-3-ylmethyl]-1,2,3,4-tetrahydro-isoquinoline formate]
18 | 24 nM | CN1CCC(N(C)Cc2coc3cc(Oc4nc5ncccc5s4)ccc23)CC1 [Example 294, Methyl-(1-methyl-piperidin-4-yl)-[6-(thiazolo[4,5-b]pyridin-2-yloxy)-benzofuran-3-ylmethyl]-amine]
19 | 31 nM | c1cnc2nc(Oc3ccc4c(CNCCN5CCCCC5)coc4c3)sc2c1 [Example 305, (2-Piperidin-1-yl-ethyl)-[6-(thiazolo[4,5-b]pyridin-2-yloxy)-benzofuran-3-ylmethyl]-amine]
20 | 35 nM | CCN(CC)CCNCc1coc2cc(Oc3nc4ncccc4s3)ccc12 [Example 317, N,N-Diethyl-N′-[6-(thiazolo[4,5-b]pyridin-2-yloxy)-benzofuran-3-ylmethyl]-ethane-1,2-diamine]
21 | < 1 nM | CCN(Cc1coc2cc(Oc3nc4ncccc4s3)ccc12)C1CCCCC1 [Example 318, Cyclohexyl-ethyl-[6-(thiazolo[4,5-b]pyridin-2-yloxy)-benzofuran-3-ylmethyl]-amine formate]
22 | 52 nM | c1ccc(OCCNCc2coc3cc(Oc4nc5ncccc5s4)ccc23)cc1 [Example 319, (2-Phenoxy-ethyl)-[6-(thiazolo[4,5-b]pyridin-2-yloxy)-benzofuran-3-ylmethyl]-amine formate]
23 | 15 nM | c1ccc2c(c1)CC(NCc1coc3cc(Oc4nc5ncccc5s4)ccc13)C2 [Example 320, Indan-2-yl-[6-(thiazolo[4,5-b]pyridin-2-yloxy)-benzofuran-3-ylmethyl]-amine formate]
24 | 54 nM | CCN(CC)Cc1cc2cc(Oc3nc4ncccc4s3)ccc2o1 [Example 329, Diethyl-[5-(thiazolo[4,5-b]pyridin-2-yloxy)-benzofuran-2-ylmethyl]-amine formate]
25 | 20 nM | CCOC(=O)CCN(C)Cc1coc2cc(Oc3nc4ncccc4s3)ccc12 [Example 334, 3-{Methyl-[6-(thiazolo[4,5-b]pyridin-2-yloxy)-benzofuran-3-ylmethyl]-amino}-propionic acid ethyl ester]
26 | 13 nM | COc1ccc(CNCc2coc3cc(Oc4nc5ncccc5s4)ccc23)cc1 [Example 346, (4-Methoxy-benzyl)-[6-(thiazolo[4,5-b]pyridin-2-yloxy)-benzofuran-3-ylmethyl]-amine]
27 | 110 nM | CN(Cc1ccccc1)C(=O)c1cc2cc(Oc3nc4ncccc4s3)ccc2o1 [Example 365, 5-(Thiazolo[4,5-b]pyridin-2-yloxy)-benzofuran-2-carboxylic acid benzyl-methyl-amide]
28 | 110 nM | CCN(C(=O)c1coc2cc(Oc3nc4ncccc4s3)ccc12)C1CCCCC1 [Example 381, 6-(Thiazolo[4,5-b]pyridin-2-yloxy)-benzofuran-3-carboxylic acid cyclohexyl-ethyl-amide]
